The record followed here is ChEMBL document CHEMBL5518156, “Recent advances of targeting nicotinamide phosphoribosyltransferase (NAMPT) for cancer drug discovery” (Eur J Med Chem, 2023).

Data set [1] can be described thus: Clearance in cynomolgus monkey at 5 mg/kg, po. To be noted: in vivo. The class given is ADME, organism-based, Macaca fascicularis.
Data set [2] in a line: Clearance in Beagle dog at 5 mg/kg, po. The class given is ADME, organism-based, Canis lupus familiaris. To be noted: in vivo.
A short description of data set [3]: Clearance in ICR mouse at 5 mg/kg, po. The class given is ADME, organism-based. The settings on record: in vivo.
The nature of data set [4]: Clearance in Sprague-Dawley rat at 5 mg/kg, po. The settings on record: in vivo. The class given is ADME, organism-based.
Data set [5] can be described thus: Oral bioavailability in ICR mouse at 5 mg/kg by LC-MS/MS analysis. The class given is ADME, organism-based. To be noted: in vivo.
A short description of data set [6]: Oral bioavailability in Sprague-Dawley rat at 5 mg/kg by LC-MS/MS analysis. The class given is ADME, organism-based. To be noted: in vivo.
The nature of data set [7]: Oral bioavailability in Cynomolgus monkey at 5 mg/kg. The class given is ADME, organism-based, Macaca fascicularis. The settings on record: in vivo.
Data set [8] in a line: Oral bioavailability in Beagle dog at 5 mg/kg. The class given is ADME, organism-based, Canis lupus familiaris. To be noted: in vivo.
The next data set has as its system COLO 205. Briefly: Antitumor activity against human COLO 205 cells xenografted in mouse model assessed as tumor growth inhibition at 15 mg/kg, po administered once daily for 7 days relative to control. The class given is functional. To be noted: COLO 205, 168 h, time 7 day, read-out: TGI. A general note: Xenograft models place foreign cells or tissue in a host animal.

Data set [9] concerns the target T1, Nicotinamide phosphoribosyltransferase (Homo sapiens, UniProt P43490). Briefly: Inhibition of NAMPT (unknown origin).
The nature of data set [10]: Oral bioavailability in CD-1 mouse at 2 mg/kg. The class given is ADME, organism-based. The settings on record: in vivo.
Data set [11] is described as follows: Cmax in CD-1 mouse at 2 mg/kg, iv. The class given is ADME, organism-based. To be noted: in vivo.
Data set [12] can be described thus: AUC in CD-1 mouse at 2 mg/kg, iv. The class given is ADME, organism-based. The settings on record: in vivo.
Data set [13] can be described thus: Clearance in CD-1 mouse at 2 mg/kg, iv. The class given is ADME, organism-based. To be noted: in vivo.
Data set [14] can be described thus: Clearance in Sprague-Dawley rat at 1 mg/kg, iv. The settings on record: in vivo. The class given is ADME, organism-based.
Data set [15] can be described thus: Half life in Sprague-Dawley rat at 5 mg/kg, po measured for 24 hrs by LC/MS/MS analysis. The settings on record: in vivo. The class given is ADME, organism-based.
The next data set has as its system HCT-116. Description: Antitumor activity against human HCT-116 cells xenografted in […] mouse assessed as tumor growth inhibition at 15 mg/kg, po administered for 3 days relative to control. The class given is functional. The settings on record: HCT-116, 72 h, time 3 day, read-out: TGI.
The target in the next data set is Histone deacetylase 1 (Homo sapiens, UniProt Q13547). Description: Inhibition of human recombinant HDAC1 using Boc-Lys(Ac)-AMC as substrate preincubated for 30 mins followed by substrate addition measured for 1 hr by fluorescence based analysis.
Histone deacetylase 1, sequence (Q13547 whole entry): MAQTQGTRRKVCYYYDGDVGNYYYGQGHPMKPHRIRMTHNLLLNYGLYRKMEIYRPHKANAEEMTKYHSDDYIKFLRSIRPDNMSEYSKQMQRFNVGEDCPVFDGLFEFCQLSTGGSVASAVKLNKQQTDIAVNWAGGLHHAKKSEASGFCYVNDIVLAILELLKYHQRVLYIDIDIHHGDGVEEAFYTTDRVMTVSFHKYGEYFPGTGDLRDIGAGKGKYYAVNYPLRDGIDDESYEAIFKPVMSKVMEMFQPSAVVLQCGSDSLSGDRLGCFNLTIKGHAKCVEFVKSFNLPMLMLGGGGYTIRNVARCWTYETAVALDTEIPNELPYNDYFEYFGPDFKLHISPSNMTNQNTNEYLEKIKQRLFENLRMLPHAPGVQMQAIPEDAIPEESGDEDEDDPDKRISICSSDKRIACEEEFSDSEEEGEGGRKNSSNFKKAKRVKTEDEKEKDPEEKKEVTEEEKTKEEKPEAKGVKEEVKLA
The next data set addresses Cytochrome P450 3A4 (Homo sapiens, UniProt P08684). Description: Inhibition of CYP3A4 (unknown origin). The class given is ADME.
Data set [16] can be described thus: Oral bioavailability in Sprague-Dawley rat at 5 mg/kg. The class given is ADME, organism-based. To be noted: in vivo.
Another data set concerns the target Cytochrome P450 2C9 (Homo sapiens, UniProt P11712). Description: Inhibition of CYP2C9 (unknown origin). The class given is ADME.
Data set [17] has as its target T1, Nicotinamide phosphoribosyltransferase. Description: Inhibition of N-terminal 6His-tagged human NAMPT (unknown origin) expressed in Escherichia coli Rosetta (DE) cells incubated for 1 hr by […].
The target in data set [18] is Epidermal growth factor receptor (Homo sapiens, UniProt P00533, L858R). Description: Inhibition of EGFR L858R mutant (unknown origin).
Epidermal growth factor receptor (Homo sapiens, UniProt P00533, L858R), sequence (P00533 25-1210 L858R limits assumed): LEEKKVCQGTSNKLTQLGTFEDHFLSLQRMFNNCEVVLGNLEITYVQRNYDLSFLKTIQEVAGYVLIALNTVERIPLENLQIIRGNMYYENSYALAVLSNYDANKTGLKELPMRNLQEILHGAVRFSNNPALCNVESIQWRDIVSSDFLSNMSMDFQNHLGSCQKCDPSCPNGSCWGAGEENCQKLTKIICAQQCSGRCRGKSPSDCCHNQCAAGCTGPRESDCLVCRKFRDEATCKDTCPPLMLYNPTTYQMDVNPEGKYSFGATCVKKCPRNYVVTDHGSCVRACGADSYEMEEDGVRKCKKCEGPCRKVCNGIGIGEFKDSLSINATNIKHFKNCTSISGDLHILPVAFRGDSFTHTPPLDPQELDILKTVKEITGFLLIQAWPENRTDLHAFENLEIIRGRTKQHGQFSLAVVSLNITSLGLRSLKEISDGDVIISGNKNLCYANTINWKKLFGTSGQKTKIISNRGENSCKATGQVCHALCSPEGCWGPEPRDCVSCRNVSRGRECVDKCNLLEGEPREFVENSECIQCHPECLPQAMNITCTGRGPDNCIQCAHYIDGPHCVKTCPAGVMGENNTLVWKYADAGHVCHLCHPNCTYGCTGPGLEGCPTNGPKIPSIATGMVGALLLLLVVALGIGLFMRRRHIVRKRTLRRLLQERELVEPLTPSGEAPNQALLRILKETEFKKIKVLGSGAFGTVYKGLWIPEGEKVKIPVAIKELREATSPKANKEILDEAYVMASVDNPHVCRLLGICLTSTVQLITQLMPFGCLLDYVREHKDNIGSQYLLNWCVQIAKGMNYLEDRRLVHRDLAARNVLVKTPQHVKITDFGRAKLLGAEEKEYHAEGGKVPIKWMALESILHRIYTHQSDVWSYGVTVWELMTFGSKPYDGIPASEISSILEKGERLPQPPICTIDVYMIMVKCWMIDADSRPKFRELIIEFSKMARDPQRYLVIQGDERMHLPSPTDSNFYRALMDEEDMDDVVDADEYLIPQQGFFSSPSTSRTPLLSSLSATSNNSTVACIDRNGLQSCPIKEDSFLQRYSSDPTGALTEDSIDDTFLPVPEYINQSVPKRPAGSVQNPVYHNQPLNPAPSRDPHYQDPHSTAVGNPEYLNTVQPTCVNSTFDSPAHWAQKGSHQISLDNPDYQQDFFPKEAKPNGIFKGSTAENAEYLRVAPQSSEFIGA
Data set [19] has as its target Epidermal growth factor receptor (Homo sapiens, UniProt P00533, L861Q). Briefly: Inhibition of human EGFR L861Q mutant by discoverX kinome scan assay.
For data set [20], the system named is A549. Description: Antitumor activity against human A549 cells xenografted in BALB/c nude mouse assessed as tumor growth inhibition at 10 mg/kg, ip administered once daily for 20 days relative to control. The class given is functional. The settings on record: A549, 480 h, time 20 day, read-out: TGI.
Data set [21] has as its system A549. Description: Antitumor activity against human A549 cells xenografted in BALB/c nude mouse assessed as tumor growth inhibition at 20 mg/kg, ip administered once daily for 20 days relative to control. To be noted: A549, 480 h, time 20 day, read-out: TGI. The class given is functional.
The nature of data set [22]: Oral bioavailability in mouse at 2 mg/kg. The class given is ADME, organism-based. To be noted: in vivo.
The target of data set [23] is von Hippel-Lindau disease tumor suppressor/Nicotinamide phosphoribosyltransferase (Homo sapiens, UniProt P43490+P40337). Description: Protac activity at VHL/NAMPT in human A2780 cells assessed as degradation of NAMPT using NAM as substrate pre-incubated for 30 mins followed by substrate addition measured for 1 hr in presence of ATP by luminescence based microplate reader analysis. The class given is cell-based.
von Hippel-Lindau disease tumor suppressor/Nicotinamide phosphoribosyltransferase, sequence (P43490 whole entry): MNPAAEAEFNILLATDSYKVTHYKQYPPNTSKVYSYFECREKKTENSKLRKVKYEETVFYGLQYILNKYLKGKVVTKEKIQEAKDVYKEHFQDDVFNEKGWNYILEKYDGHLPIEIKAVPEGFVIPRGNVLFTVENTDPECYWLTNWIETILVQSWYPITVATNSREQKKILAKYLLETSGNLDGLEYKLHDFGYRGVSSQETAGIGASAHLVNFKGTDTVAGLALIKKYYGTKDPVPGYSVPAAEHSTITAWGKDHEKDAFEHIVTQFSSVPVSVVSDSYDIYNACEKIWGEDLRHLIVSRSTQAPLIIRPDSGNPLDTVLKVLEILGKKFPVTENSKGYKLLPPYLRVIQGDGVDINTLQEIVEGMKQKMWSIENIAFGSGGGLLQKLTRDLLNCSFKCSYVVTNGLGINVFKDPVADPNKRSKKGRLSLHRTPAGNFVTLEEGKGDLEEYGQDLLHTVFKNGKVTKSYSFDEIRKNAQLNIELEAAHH
von Hippel-Lindau disease tumor suppressor/Nicotinamide phosphoribosyltransferase, sequence (P40337 whole entry): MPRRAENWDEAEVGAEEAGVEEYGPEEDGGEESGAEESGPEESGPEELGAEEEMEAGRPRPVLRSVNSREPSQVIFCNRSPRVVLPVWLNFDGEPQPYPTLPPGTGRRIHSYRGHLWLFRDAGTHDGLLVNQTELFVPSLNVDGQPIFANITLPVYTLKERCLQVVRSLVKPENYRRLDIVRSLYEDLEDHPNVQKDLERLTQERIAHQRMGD

A short description of data set [24]: Half life in mouse plasma at 5 mg/kg, iv by LC-MS/MS analysis. The class given is ADME, organism-based.
Data set [25] in a line: Cmax in mouse plasma at 30 mg/kg, ip measured upto 24 hrs by LC-MS/MS analysis. The class given is ADME, organism-based.
The test system of data set [26] is A2780. Briefly: Antitumor activity against human A2780 cells xenografted in BALB/c nu/nu mouse assessed as tumor growth inhibition at 30 mg/kg, iv administered once daily for 2 weeks relative to control. The class given is functional. The settings on record: A2780, 336 h, read-out: TGI.
The subject of a further data set is SH-SY5Y. Description: Antiproliferative activity against human SH-SY5Y cells assessed as cell growth inhibition measured for 48 hrs by MTT assay. The class given is functional, cell-based. On the technique in general: Tetrazolium dyes change colour on reduction, which living cells bring about.
The test system of the next data set is MIA PaCa-2. Description: Antiproliferative activity against human MIA PaCa-2 cells assessed as reduction in cell viability incubated for 72 hrs by MTT assay. To be noted: MIA PaCa-2, 72 h. The class given is functional, cell-based.
The subject of data set [27] is A2780. Description: Antiproliferative activity against human A2780 cells assessed as reduction in cell viability measured for 72 hrs by MTT assay. The class given is functional, cell-based. The settings on record: A2780, 72 h.
A short description of data set [28]: Oral bioavailability in Sprague-Dawley rat at 10 mg/kg by LC-MS analysis. The settings on record: in vivo. The class given is ADME, organism-based.
The nature of data set [29]: Cmax in Sprague-Dawley rat at 10 mg/kg, po by LC-MS analysis. The class given is ADME, organism-based. To be noted: in vivo.

T1 sequence (P43490 whole entry): as the sequence (P43490 whole entry) above
Cytochrome P450 2C9, sequence (P11712 whole entry): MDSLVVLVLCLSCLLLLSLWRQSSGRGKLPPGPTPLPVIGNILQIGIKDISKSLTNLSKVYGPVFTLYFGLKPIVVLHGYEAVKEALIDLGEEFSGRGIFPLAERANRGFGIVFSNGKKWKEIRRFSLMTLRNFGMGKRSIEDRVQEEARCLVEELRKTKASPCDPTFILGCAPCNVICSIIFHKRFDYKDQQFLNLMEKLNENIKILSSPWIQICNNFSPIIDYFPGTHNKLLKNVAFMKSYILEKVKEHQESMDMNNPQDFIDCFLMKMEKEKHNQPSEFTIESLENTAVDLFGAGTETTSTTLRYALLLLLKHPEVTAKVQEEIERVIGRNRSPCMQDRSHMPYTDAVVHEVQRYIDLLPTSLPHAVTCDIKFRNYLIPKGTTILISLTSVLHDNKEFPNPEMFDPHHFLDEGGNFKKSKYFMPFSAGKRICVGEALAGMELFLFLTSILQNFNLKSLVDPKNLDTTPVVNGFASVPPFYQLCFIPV
Cytochrome P450 3A4, sequence (P08684 whole entry): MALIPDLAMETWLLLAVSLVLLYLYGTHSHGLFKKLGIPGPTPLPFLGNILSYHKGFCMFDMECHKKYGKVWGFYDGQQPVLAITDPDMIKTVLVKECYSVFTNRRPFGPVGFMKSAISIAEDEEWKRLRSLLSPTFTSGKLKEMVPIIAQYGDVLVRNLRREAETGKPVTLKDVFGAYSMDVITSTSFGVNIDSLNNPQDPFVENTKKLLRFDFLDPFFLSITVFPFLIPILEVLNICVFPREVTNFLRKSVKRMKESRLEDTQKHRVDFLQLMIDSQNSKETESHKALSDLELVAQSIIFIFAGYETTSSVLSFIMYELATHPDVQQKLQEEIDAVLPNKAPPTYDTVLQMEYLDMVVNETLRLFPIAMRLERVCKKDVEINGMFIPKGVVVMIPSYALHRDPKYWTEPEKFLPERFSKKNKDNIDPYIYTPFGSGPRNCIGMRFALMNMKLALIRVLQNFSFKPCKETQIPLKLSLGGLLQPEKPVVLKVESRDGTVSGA
Epidermal growth factor receptor (Homo sapiens, UniProt P00533, L861Q), sequence (P00533 25-1210 L861Q limits assumed): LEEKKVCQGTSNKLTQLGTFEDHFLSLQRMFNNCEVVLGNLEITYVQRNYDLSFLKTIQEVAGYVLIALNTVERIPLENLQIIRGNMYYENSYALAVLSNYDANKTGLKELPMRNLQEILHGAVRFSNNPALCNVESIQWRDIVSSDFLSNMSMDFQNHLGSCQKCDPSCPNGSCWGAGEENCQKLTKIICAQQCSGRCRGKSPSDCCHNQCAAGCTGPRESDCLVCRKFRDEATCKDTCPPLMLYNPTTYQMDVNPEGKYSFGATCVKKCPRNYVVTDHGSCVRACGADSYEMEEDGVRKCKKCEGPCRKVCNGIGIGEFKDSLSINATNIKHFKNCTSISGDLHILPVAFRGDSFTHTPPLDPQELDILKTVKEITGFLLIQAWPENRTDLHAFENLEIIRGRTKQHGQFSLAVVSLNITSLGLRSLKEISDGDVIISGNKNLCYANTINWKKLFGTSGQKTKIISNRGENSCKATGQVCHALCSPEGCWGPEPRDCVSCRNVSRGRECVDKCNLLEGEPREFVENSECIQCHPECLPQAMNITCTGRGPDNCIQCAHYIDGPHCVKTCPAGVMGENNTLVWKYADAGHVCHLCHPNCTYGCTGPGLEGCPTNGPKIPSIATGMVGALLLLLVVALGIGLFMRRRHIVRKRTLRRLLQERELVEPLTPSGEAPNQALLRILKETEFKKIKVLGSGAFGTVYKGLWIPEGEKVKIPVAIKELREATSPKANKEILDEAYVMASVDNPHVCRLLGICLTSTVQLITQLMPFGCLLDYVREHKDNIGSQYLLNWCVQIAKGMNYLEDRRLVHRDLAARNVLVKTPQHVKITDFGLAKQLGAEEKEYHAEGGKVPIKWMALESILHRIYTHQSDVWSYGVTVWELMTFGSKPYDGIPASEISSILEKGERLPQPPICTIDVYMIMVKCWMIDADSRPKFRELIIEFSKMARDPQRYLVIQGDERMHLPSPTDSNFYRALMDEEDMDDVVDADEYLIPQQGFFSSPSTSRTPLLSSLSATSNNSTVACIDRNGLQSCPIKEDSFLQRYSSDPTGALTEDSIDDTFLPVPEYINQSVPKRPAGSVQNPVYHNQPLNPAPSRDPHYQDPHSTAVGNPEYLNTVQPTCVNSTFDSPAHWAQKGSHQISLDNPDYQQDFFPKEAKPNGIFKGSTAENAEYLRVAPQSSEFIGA

As for `O=C(NCc1ccc(S(=O)(=O)c2cc(F)cc(F)c2)cc1)c1ccc2nccn2c1`, the CL/F in data set [1] amounted to 9.14 mL/min/kg; in data set [2], 4.62 mL/min/kg; in data set [3] it was 36.4 mL/min/kg; in data set [4] it was 19.3 mL/min/kg. The bioavailability in data set [5] came to 29.7%; in [6] it was 33.9%; in data set [7], 29.4%; in data set [8], 65.2%. For the same compound, in the data set with COLO 205, the inhibition in vivo at 15 mg/kg was found to be 57%.

On to `CC(C)(O)CS(=O)(=O)Nc1ccc2c(c1)CCN(C(=O)COc1cccnc1)C2`, for which 3.2 nM corresponded to half-maximal inhibition in data set [9] (IC50). Further, the bioavailability in data set [10] turned out to be 39%. Moreover, the peak level in data set [11] (Cmax) was 57 nM. Moreover, the AUC in [12] was found to be 0.195 µM·h. For the same compound, the clearance in [13] turned out to be 159 mL/min/kg.

`O=C(NC[C@@H]1CCOC1)c1ccc(NC(=O)N2Cc3ccccc3C2)cc1`: in [14], the clearance is 4.33 mL/min/kg. Further, the half-life in data set [15] is 3 h. For the same compound, the inhibition in vivo at 15 mg/kg in the data set with HCT-116 amounted to 78%.

For `Nc1ccccc1NC(=O)c1ccc(Cn2cc(-c3ccc(C(=O)NCc4cccnc4)cc3)nn2)cc1`, the IC50 at Histone deacetylase 1 worked out at 55000 nM.

Take `CC(C)(O)CC(=O)N1CCC(c2ccc(NC(=O)N3Cc4ccccc4C3)cc2)CC1`: the IC50 against Cytochrome P450 3A4 and against Cytochrome P450 2C9 was above 20000 nM each time. The bioavailability in data set [16] came to 100%. Further, in [15], the half-life was 4.8 h. For the same compound, the inhibition in vivo at 15 mg/kg in the data set on HCT-116 worked out at 90%.

For the compound `CC(=O)NCc1ncc2cc(COc3ccc(C(=O)NCc4cccnc4)cc3)n(CCC3CCCCC3)c2n1`, in data set [17], the IC50 was determined as 4.3 nM.

With `C#Cc1cccc(Nc2ncnc3cc(OC)c(OCCCCCCCN/C(=N\C#N)Nc4ccncc4)cc23)c1`, the IC50 in data set [18] was 0.48 nM; in [19], 0.49 nM.

As for `Cc1c(CNc2ccc(CCNC(=O)/C=C/c3cccnc3)cc2)oc2c1C(=O)C(=O)c1c-2ccc2c1CCCC2(C)C`, the inhibition in vivo at 10 mg/kg in the data set with A549 [20] came to 44.2%. Also, in the data set on A549 [21], the inhibition in vivo at 20 mg/kg came out at 52.1%. For the same compound, the bioavailability in [22] was 5.8%.

Take `CCCn1c(=O)c(-c2ccc(C(=O)NCc3cccnc3)cc2)nc2ccc(NC(=O)CCCCCCCCCCC(=O)N[C@H](C(=O)N3C[C@H](O)C[C@H]3C(=O)N[C@@H](C)c3ccc(-c4scnc4C)cc3)C(C)(C)C)cc21`: the 50% degradation concentration (DC50) in [23] amounted to 8.4 nM. Moreover, the half-life in data set [24] was 9.89 h. The compound further showed a Cmax in [25] of 166 nM. Besides, the inhibition in vivo at 30 mg/kg in the data set on A2780 [26] was 73%.

Turning to `CN1CCN(Cc2cn(-c3cccc(C(=O)NCCCCCCCn4cc(-c5cccnc5)nn4)c3)nn2)CC1`, the IC50 in [9] was 41.8 nM; in the data set with SH-SY5Y it was above 10000 nM.

Take `O=C(NCCCCCCCn1cc(-c2cccnc2)nn1)c1cccc(-n2cc(CN3CCC(O)CC3)nn2)c1`: the IC50 in data set [9] was 13.6 nM; with SH-SY5Y, above 10000 nM.

Take `COC[C@H]1N[C@@H](c2ccc(NC(=O)c3ccc(CNS(=O)(=O)c4ccc(C(C)(C)C)cc4)cc3)cc2)[C@H](OC)[C@@H]1OC`: the 50% inhibitory concentration (IC50) in the data set on MIA PaCa-2 stood at 32000 nM.

With `Cc1ccc(C(=O)N(CCCNC(=O)CCCCCCCCN2CCN(S(=O)(=O)c3ccc(NC(=S)NCc4cccnc4)cc3)CC2)[C@@H](c2nc3cc(Cl)ccc3c(=O)n2Cc2ccccc2)C(C)C)cc1`, the IC50 with A2780 [27] was 46 nM; in data set [9] it was 490 nM.

On to `O=C(/C=C/c1cccnc1)NCCCCC1CCN(C(=O)c2ccc(N3CCN(CCCCCCC#Cc4cccc5c4CN(C4CCC(=O)NC4=O)C5=O)CC3)cc2)CC1` (configuration not stated), for which the bioavailability in data set [28] turned out to be 23.2%. The same compound gave a Cmax in data set [29] of 135 ng/mL.

As usually defined, the CL/F is clearance divided by bioavailability, as obtained after extravascular dosing. By bioavailability is commonly meant dose-corrected exposure relative to a reference, in per cent. What is called IC50 is the concentration that gives 50% inhibition. What is called Cmax is the maximum level reached in the sampled fluid or tissue. By AUC is commonly meant concentration integrated over time. The clearance is the volume of plasma or blood freed of the substance per unit of time. A word on the half-life: it is the time in which the quantity being followed falls by half. In general, DC50 refers to the concentration at which degradation of the target reaches its halfway point.
